Data published in patent US20200031778A1, “NOVEL 5-SUBSTITUTED IMIDAZOLYLMETHYL DERIVATIVES” (Bayer CropScience Aktiengesellschaft, priority 2016, published 2020).

Columns and labels:
[1] = tested on: Sphaerotheca fuliginea; test: Example IX-C: in vivo preventive test on Sphaerotheca fuliginea (powdery mildew on cucurbits); conditions: Podosphaera fuliginea, 360 h; compounds of formula IX; 500 ppm of active ingredient; gherkin plants, preventive spray; evaluated 15 days after inoculation; read-out: efficacy
Experimental: Example IX-C: In Vivo Preventive Test on Sphaerotheca Fuliginea (Powdery Mildew on Cucurbits)
(§1) The active ingredients are made soluble and homogenized in a mixture of Dimethyl sulfoxide/Acetone/Tween® 80 and then diluted in water to the desired concentration.
The young plants of gherkin are treated by spraying the active ingredient prepared as described above. Control plants are treated only with an aqueous solution of Acetone/Dimethyl sulfoxide/Tween® 80.
After 24 hours, the plants are contaminated by spraying the leaves with an aqueous suspension of Sphaerotheca fuliginea spores. The contaminated gherkin plants are incubated for 72 hours at 18° C. and at 100% relative humidity and then for 12 days at 20° C. and at 70-80% relative humidity.
The test is evaluated 15 days after the inoculation. 0% means an efficacy which corresponds to that of the control plants while an efficacy of 100% means that no disease is observed.

[2] = Log P by HPLC on reversed phase columns (EEC directive 79/831 Annex V.A8; methods [a], [b], [c]); format: physicochemical; conditions: reversed phase HPLC column; method [a]: LC-UV, acidic range, 0.1% formic acid in water and acetonitrile as eluent (linear gradient from 10% to 95% acetonitrile)
Outline: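 Log P derived from retention times, interpolated linearly between bracketing straight-chain alkan-2-ones (3–16 carbons) of known Log P. Eluents ran acetonitrile 10% to 95% against water with 0.1% formic acid ([a], acidic), 0.001 M ammonium acetate ([b], neutral) or 0.1% phosphoric acid ([c], acidic); UV read-out.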

[3] = tested on: Puccinia recondita; test: Example IX-A: in vivo preventive test on Puccinia recondita (brown rust on wheat); conditions: 264 h, compounds of formula IX, 500 ppm of active ingredient, wheat plants, preventive spray, evaluated 11 days after inoculation, read-out: efficacy
Experimental: Example IX-A: In Vivo Preventive Test on Puccinia Recondita (Brown Rust on Wheat)
as §1
(§2) The young plants of wheat are treated by spraying the active ingredient prepared as described above. Control plants are treated only with an aqueous solution of Acetone/Dimethyl sulfoxide/Tween® 80.
After 24 hours, the plants are contaminated by spraying the leaves with an aqueous suspension of Puccinia recondita spores. The contaminated wheat plants are incubated for 24 hours at 20° C. and at 100% relative humidity and then for 10 days at 20° C. and at 70-80% relative humidity.
(§3) The test is evaluated 11 days after the inoculation. 0% means an efficacy which corresponds to that of the control plants while an efficacy of 100% means that no disease is observed.

[4] = tested on: Septoria tritici; test: Example IX-B: in vivo preventive test on Septoria tritici (leaf spot on wheat); conditions: Zymoseptoria tritici, 576 h; compounds of formula IX; 500 ppm of active ingredient; wheat plants, preventive spray; evaluated 24 days after inoculation; read-out: efficacy
Experimental: Example IX-B: In Vivo Preventive Test on Septoria Tritici (Leaf Spot on Wheat)
as §1, §2
After 24 hours, the plants are contaminated by spraying the leaves with an aqueous suspension of Septoria tritici spores. The contaminated wheat plants are incubated for 72 hours at 18° C. and at 100% relative humidity and then for 21 days at 20° C. and at 90% relative humidity.
The test is evaluated 24 days after the inoculation. 0% means an efficacy which corresponds to that of the control plants while an efficacy of 100% means that no disease is observed.

[5] = tested on: Uromyces appendiculatus; test: Example IX-D: in vivo preventive test on Uromyces appendiculatus (bean rust); conditions: 264 h, compounds of formula IX, 500 ppm of active ingredient, bean plants, preventive spray, evaluated 11 days after inoculation, read-out: efficacy
Experimental: Example IX-D: In Vivo Preventive Test on Uromyces Appendiculatus (Bean Rust)
as §1
The young plants of bean are treated by spraying the active ingredient prepared as described above. Control plants are treated only with an aqueous solution of Acetone/Dimethyl sulfoxide/Tween® 80.
After 24 hours, the plants are contaminated by spraying the leaves with an aqueous suspension of Uromyces appendiculatus spores. The contaminated bean plants are incubated for 24 hours at 20° C. and at 100% relative humidity and then for 10 days at 20° C. and at 70-80% relative humidity.
as §3
control plants while an efficacy of 100% means that no disease was observed.

SMILES | chromatographic logP [2] | pest or weed control at 500 ppm [1] [%] | pest or weed control at 500 ppm [3] [%] | pest or weed control at 500 ppm [4] [%] | pest or weed control at 500 ppm [5] [%]
O=C(Cn1cncc1Cl)c1ccc(Oc2ccc(I)cc2)cc1F [IX-47] | 3.19 | 90 to 100 | 90 to 100 | 90 to 100 | 90 to 100
O=C(Cn1cncc1Cl)c1ccc(Oc2ccc(Cl)cc2)cc1Cl [IX-04] | 3.17 | 90 to 100 | 90 to 100 | 90 to 100 | 90 to 100
O=C(Cn1cncc1Br)c1ccc(Oc2ccc(I)cc2)cc1Cl [IX-32] | 3.35 | 90 to 100 | 80 to 89 | 90 to 100 | 90 to 100
O=C(Cn1cncc1F)c1ccc(Oc2ccc(Br)cc2)nc1C(F)(F)F [IX-86] | 2.76 | 90 to 100 | 90 to 100 | 90 to 100 | 90 to 100
N#Cc1cncn1CC(=O)c1ccc(Oc2ccc(Cl)cc2)cc1Cl [IX-31] | 3.46 | 90 to 100 | 90 to 100 | 90 to 100 | 90 to 100
O=C(Cn1cncc1C(F)(F)F)c1ccc(Oc2ccc(Cl)cc2)cc1F [IX-80] | 3.85 | 90 to 100 | 90 to 100 | 90 to 100 | 90 to 100
O=C(Cn1cncc1Cl)c1cnc(Oc2ccc(Cl)cc2)cc1Cl [IX-23] | 2.75 | 90 to 100 | 80 to 89 | 90 to 100 | 90 to 100
N#Cc1cncn1CC(=O)c1ccc(Oc2ccc(Br)cn2)cc1Cl [IX-77] | 2.94 | 90 to 100 | 90 to 100 | 90 to 100 | 90 to 100
N#Cc1cncn1CC(=O)c1cnc(Oc2ccc(C(F)(F)F)cc2)cc1C(F)(F)F [IX-89] | 3.42 | 90 to 100 | 80 to 89 | 90 to 100 | 90 to 100
N#Cc1cncn1CC(=O)c1ccc(Oc2ccc(Cl)nc2)cc1Cl [IX-60] | 2.62 | 90 to 100 | 80 to 89 | 90 to 100 | 90 to 100
O=C(Cn1cncc1Cl)c1ccc(Oc2ccc(Cl)cc2)cc1C(F)F [IX-73] | 3.02 | – | 90 to 100 | 90 to 100 | 90 to 100
O=C(Cn1cncc1Cl)c1ccc(Oc2ccc(C(F)(F)F)cc2)cc1C(F)(F)F [IX-53] | 3.51 | – | 90 to 100 | 90 to 100 | 90 to 100
O=C(Cn1cncc1Br)c1ccc(Oc2ccc(Br)cc2)cc1C(F)(F)F [IX-40] | 3.46 | – | 80 to 89 | 90 to 100 | 90 to 100
O=C(Cn1cncc1Br)c1ccc(Oc2ccc(S(F)(F)(F)(F)F)cc2)nc1Cl [IX-26] | 3.23 | 90 to 100 | 80 to 89 | 80 to 89 | –
N#Cc1cncn1CC(=O)c1ccc(Cl)cc1 [IX-90] | 2.04 | 80 to 89 | 80 to 89 | 90 to 100 | –
O=C(Cn1cncc1Cl)c1ccc(Oc2ccc(C(F)(F)F)cc2)cc1 [IX-17] | 2.84 | 90 to 100 | 80 to 89 | 90 to 100 | –
O=C(Cn1cncc1Br)c1ccc(Oc2ccc(Cl)cn2)cc1Cl [IX-55] | 2.52 | 90 to 100 | 80 to 89 | 90 to 100 | –

Now from value to compound, other results behind:

chromatographic logP [2] | SMILES | pest or weed control at 500 ppm [1] [%] | pest or weed control at 500 ppm [3] [%] | pest or weed control at 500 ppm [4] [%] | pest or weed control at 500 ppm [5] [%]
3.37 | N#Cc1cncn1CC(=O)c1cnc(Oc2ccc(C(F)(F)F)cc2)cc1Br [IX-115] | 90 to 100 | 90 to 100 | 90 to 100 | 90 to 100
2.32 | O=C(Cn1cncc1F)c1cnc(Oc2ccc(Cl)cc2)cc1Cl [IX-94] | 90 to 100 | 80 to 89 | 90 to 100 | 90 to 100
2.5 | O=C(Cn1cncc1F)c1cnc(Oc2ccc(Cl)cc2)cc1C(F)(F)F [IX-104] | 90 to 100 | 90 to 100 | 90 to 100 | 90 to 100
3.55 | CC(=O)c1cncn1CC(=O)c1cnc(Oc2ccc(Cl)cc2)cc1C(F)(F)F [IX-120] | – | 90 to 100 | 90 to 100 | 80 to 89
2.53 | O=C(Cn1cncc1F)c1cnc(Oc2ccc(C(F)F)cc2)cc1C(F)(F)F [IX-97] | – | 80 to 89 | 90 to 100 | 90 to 100
3.13 | N#Cc1cncn1CC(=O)c1cnc(Oc2ccc(C(F)F)cc2)cc1C(F)(F)F [IX-98] | – | 80 to 89 | 90 to 100 | 90 to 100
3.14 | N#Cc1cncn1CC(=O)c1ccc(Oc2ccc(Cl)cc2F)nc1C(F)(F)F [IX-128] | 90 to 100 | 70 to 79 | 90 to 100 | –
3.39 | N#Cc1cncn1CC(=O)c1ccc(Oc2ccc(Br)cc2)nc1C(F)(F)F [IX-118] | 90 to 100 | – | 90 to 100 | 80 to 89
2.92 | N#Cc1cncn1CC(=O)c1ccc(Oc2ccc(C(F)(F)F)nc2)nc1C(F)(F)F [IX-131] | 90 to 100 | 80 to 89 | 90 to 100 | –
3.32 | N#Cc1cncn1CC(=O)c1ccc(Oc2ccc(OC(F)(F)F)cc2)nc1C(F)(F)F [IX-129] | 90 to 100 | 90 to 100 | 90 to 100 | –
2.68 | N#Cc1cncn1CC(=O)c1ccc(Oc2ccc(Br)nc2)nc1C(F)(F)F [IX-144] | 90 to 100 | 70 to 79 | 90 to 100 | –
2.8 | N#Cc1cncn1CC(=O)c1ccc(Oc2ccc(C(F)F)cc2)nc1C(F)(F)F [IX-132] | 90 to 100 | 90 to 100 | 90 to 100 | –
3.35 | N#Cc1cncn1CC(=O)c1ccc(Oc2ccc(C(F)(F)F)cc2)nc1C(F)(F)F [IX-137] | 90 to 100 | 90 to 100 | 90 to 100 | –
2.89 | N#Cc1cncn1CC(=O)c1cnc(Oc2ccc(Br)cc2)cc1C(F)F [IX-123] | – | 90 to 100 | 90 to 100 | 90 to 100
